Eight compounds from article PMC9331004 (Scientific Reports, 2022) can be followed below.

Like-named read-outs stand apart in the source and are kept apart here.

Data set [1] concerns SARS-CoV-2 (hCoV-19/Egypt/NRC-3/2020, NRC-03-nhCoV). The data set can be described thus: microbe, parasite or virus in culture. The data set is classed as cell-based. The settings on record: for IC50: Severe acute respiratory syndrome coronavirus 2, Vero C1008, 72 h.
The subject of data set [2] is MERS-CoV (isolate NRCE-HKU270). Put plainly: microbe, parasite or virus in culture. In kind it is cell-based. The settings on record: for IC50: Middle East respiratory syndrome-related coronavirus.
Data set [3] concerns SARS-CoV-2. Put plainly: microbe, parasite or virus in culture. The data set is classed as cell-based.
Data set [4] deals with SARS-CoV-2. In kind it is cell-based.
A short description of another data set: in vitro. The settings on record: African green monkey, CC50, Vero-E6 cells, crystal violet.
Data set [5] concerns MERS-CoV. The data set is classed as cell-based.
The subject of data set [6] is MERS-CoV. The data set is classed as cell-based. This is another data set of the same source.
[7] abbreviates: read-out: IC50 against SARS-CoV-2.
The mark [8] stands for this setting: Vero C1008, read-out: IC50 against MERS-CoV.
[9] abbreviates: Vero C1008, read-out: IC50 MERS-CoV.

On to `CN(C)CCC=C1c2ccccc2CCc2ccccc21` [Amitriptyline], for which the “selectivity index (CC50/IC50) for SARS-CoV-2” value in data set [1] amounted to 28.5. The IC50 in data set [1] (setting [7]) stood at 10.7 µM; in data set [2] (setting [8]) it was 129 µM. Further, the “effect on viral RNA copy number (qRT-PCR)” value (from here on “effect”) in the data set with SARS-CoV-2 [3] is “reduction in viral RNA copy number”. Also, the “mode of action against SARS-CoV-2” value in the data set with SARS-CoV-2 [4] is “remarkable virucidal effect and effects on virus replication”. It took 306 µM to reach half-maximal cytotoxicity in the data set “in vitro” (CC50 at 72 h).
Consider `CN(C)CCCC1(c2ccc(F)cc2)OCc2cc(C#N)ccc21` (stereo not drawn) [Citalopram], for which the IC50 in data set [1] (setting [7]) was determined as 172 µM; in data set [2] (setting [9]) it was 303 µM; in data set [2] (setting [8]), 302 µM. Moreover, the CC50 at 72 h in “in vitro” and in “in vitro” (values given in Fig. 2) was 295 µM in each case.
On to `CN(C)CCC[C@@]1(c2ccc(F)cc2)OCc2cc(C#N)ccc21` [Escitalopram], for which the values for the 50% inhibitory concentration (IC50) in data set [1] (setting [7]), in data set [2] (setting [9]) and in data set [2] (setting [8]) were 209 µM, 93.6 µM and 93.5 µM, respectively. In “in vitro”, the 50% cytotoxic concentration (CC50) at 72 h amounted to 352 µM.
Take `CN1CCN(C(=O)O[C@H]2c3nccnc3C(=O)N2c2ccc(Cl)cn2)CC1` [Eszopiclone]: the IC50 in data set [1] (read-out: IC50 SARS-CoV-2) came out at 80 µM; in data set [1] (setting [7]), 80 µM; in data set [2] (setting [8]), 99.9 µM. In “in vitro”, this compound gave a cytotoxic concentration (CC50) at 72 h of 193 µM.
Turning to `CN(C)CCCN1c2ccccc2CCc2ccccc21` [Imipramine], the IC50 was 29.5 µM in data set [1] (read-out: IC50 SARS-CoV-2), 29.4 µM in data set [1] (setting [7]) and 14.2 µM in data set [2] (setting [8]). Also, in data set [2], the “selectivity index (CC50/IC50) for MERS-CoV” value was determined as 19. For the same compound, the “effect” value in the data set on MERS-CoV [5] is given as “reduction in viral RNA copy number”. For the same compound, in the data set on MERS-CoV [6], the “mode of action against MERS-CoV” value was “virucidal and replication potential combination mechanisms”. For the same compound, the CC50 at 72 h in “in vitro” came to 270 µM; in the data set “in vitro” (values given in Fig. 2), 271 µM.
Regarding `CN1CCN2c3ncccc3Cc3ccccc3C2C1` (stereo not drawn) [Mirtazapine], the results for the IC50 in data set [1] (setting [7]) and in data set [2] (setting [8]) were 180 µM and 132 µM, respectively. Also, the CC50 at 72 h in “in vitro” and in “in vitro” (values given in Fig. 2) was 572 µM in each case.
For the compound `Fc1ccc([C@@H]2CCNC[C@H]2COc2ccc3c(c2)OCO3)cc1` [Paroxetine], the “selectivity index (CC50/IC50) for SARS-CoV-2” value in data set [1] came to 11.6. Also, the half-maximal inhibitory concentration (IC50) came to 22.7 µM in data set [1] (setting [7]), 7.73 µM in data set [2] (setting [9]) and 7.7 µM in data set [2] (setting [8]). The “selectivity index (CC50/IC50) for MERS-CoV” value in data set [2] came out at 34.2. The “effect” value with SARS-CoV-2 [3] and in the data set on MERS-CoV [5] was “reduction in viral RNA copy number” each time. Also, in the data set with SARS-CoV-2 [3] (Severe acute respiratory syndrome coronavirus 2, Vero C1008, 48 h, read-out: viral inhibition compared to untreated and infected cells (qRT-PCR)), the inhibition at 8.3 µM was 99%. In addition, in the data set on SARS-CoV-2 [4], the “mode of action against SARS-CoV-2” value was “remarkable virucidal effect and effects on virus replication”. Besides, in the data set on MERS-CoV [6], the “mode of action against MERS-CoV” value is “virucidal and replication potential combination mechanisms”. This compound also yielded a CC50 at 72 h in “in vitro” of 264 µM.
On to `CN[C@H]1CC[C@@H](c2ccc(Cl)c(Cl)c2)c2ccccc21` [Sertraline], for which the “effect” value in the data set with MERS-CoV [5] was “reduction in viral RNA copy number”. Besides, the “mode of action against MERS-CoV” value with MERS-CoV [6] was “virucidal and adsorption mechanisms”. In the data set “in vitro”, the cytotoxic concentration (CC50) at 72 h is 116 µM.
